Test results: ChEMBL document CHEMBL1201862, “PubChem BioAssay data set” (2004)
Active and inactive are the calls of the source.

Assays:
[1] = Jurkat T cell cytotoxicity, dose response, cytotoxicity control for P. falciparum gametocyte viability project, luminescence (AID 1117277); format: functional, cell-based;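 also: potency reflects loss of cellular ATP meaning fewer viable cells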
[2] = P. falciparum late gametocyte killing, dose response, luminescence (AID 1117278); format: functional, cell-based;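 also: gametocytes exposed to compound for 24 hours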
[3] = human group III sPLA2 inhibitors, dose response, biochemical, QFRET, IC50 (AID 743457);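 also: green fluorescence rise as the enzyme cleaves BODIPY PC-A2 in liposomes; potency for inhibition of the enzyme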
[4] = biological target: Mitogen-activated protein kinase 10 (Homo sapiens, UniProt P53779); experiment: Dose response biochemical screening assay for inhibitors of c-Jun N-Terminal Kinase 3 (JNK3). [Related pubchem assays: 746 ]
[5] = CEM21 lymphoblast cell cytotoxicity, dose response, cytotoxicity control for viral fusion inhibitor project, CellTiter-Glo luminescence, cherry-picked (AID 652042); format: functional, cell-based;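 also: potency for signal decrease meaning cytotoxicity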
[6] = inhibitors of clade B AD8 Env fusion, dose response, cell-based, cherry-pick (AID 652062); format: functional;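 also: luciferase signal from cell-cell fusion driven by HIV-1 clade B AD8 Env; potency is for inhibitors of fusion seen as a drop in luminescence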
[7] = off-target signal loss in HeLa-CEM21 co-culture – HeLa F-luc CTL cells, cherry-picked, counter-screen for HIV-1 Env fusion inhibitor project, dose response (AID 652040); format: functional, cell-based;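 also: potency for signal decrease marking cytotoxic or nonspecific inhibition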
[8] = inhibitors of HIV Env-driven cell fusion, dose response, cherry-pick (AID 652057); format: functional, cell-based
[9] = ZM109 Env clade C HIV-1 fusion inhibitors, dose response, HeLa effector, CEM target cells, luciferase, cherry-pick (AID 652058); format: functional, cell-based
cells [10] = format: functional, cell-based
cells [11] = format: functional, cell-based; remark: listed apart in the source
Prothrombin = Prothrombin (Homo sapiens, UniProt P00734); experiment: Thrombin 1536 HTS Dose Response Confirmation. [Related pubchem assays: 1046 (Thrombin 1536 HTS; hits were confirmed in this assay)]; format: functional
[12] = biological target: T1, DNA repair and recombination protein RAD54-like (Homo sapiens, UniProt Q92698); experiment: inhibitors of human RAD54 branch migration, confirmation, biochemical, fluorescence, cherry-picked samples, dose series (AID 651657); format: functional
T1 sequence (Q92698 whole entry): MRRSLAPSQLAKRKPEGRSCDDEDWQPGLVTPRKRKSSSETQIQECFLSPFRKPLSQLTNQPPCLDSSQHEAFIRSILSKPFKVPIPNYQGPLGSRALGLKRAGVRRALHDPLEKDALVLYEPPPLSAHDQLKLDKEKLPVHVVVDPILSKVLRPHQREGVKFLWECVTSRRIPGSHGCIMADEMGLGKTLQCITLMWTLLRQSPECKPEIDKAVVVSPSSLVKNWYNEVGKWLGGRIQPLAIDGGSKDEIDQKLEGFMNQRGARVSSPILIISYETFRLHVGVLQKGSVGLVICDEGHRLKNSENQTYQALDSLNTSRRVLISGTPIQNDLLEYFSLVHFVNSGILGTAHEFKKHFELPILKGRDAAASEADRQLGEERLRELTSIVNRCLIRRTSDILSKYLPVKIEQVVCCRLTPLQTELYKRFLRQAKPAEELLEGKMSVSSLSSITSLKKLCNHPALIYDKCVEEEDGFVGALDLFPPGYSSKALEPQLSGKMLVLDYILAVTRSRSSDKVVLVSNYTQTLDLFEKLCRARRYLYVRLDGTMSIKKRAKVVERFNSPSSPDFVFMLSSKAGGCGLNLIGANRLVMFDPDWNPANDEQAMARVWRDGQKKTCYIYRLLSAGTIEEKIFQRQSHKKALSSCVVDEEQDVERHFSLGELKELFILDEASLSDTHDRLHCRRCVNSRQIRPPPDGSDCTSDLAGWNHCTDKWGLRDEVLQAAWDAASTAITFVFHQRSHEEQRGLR

[13] = biological target: T2, DNA repair protein RAD52 homolog (Homo sapiens, UniProt P43351); format: functional, biochemical
T2 sequence (P43351 whole entry): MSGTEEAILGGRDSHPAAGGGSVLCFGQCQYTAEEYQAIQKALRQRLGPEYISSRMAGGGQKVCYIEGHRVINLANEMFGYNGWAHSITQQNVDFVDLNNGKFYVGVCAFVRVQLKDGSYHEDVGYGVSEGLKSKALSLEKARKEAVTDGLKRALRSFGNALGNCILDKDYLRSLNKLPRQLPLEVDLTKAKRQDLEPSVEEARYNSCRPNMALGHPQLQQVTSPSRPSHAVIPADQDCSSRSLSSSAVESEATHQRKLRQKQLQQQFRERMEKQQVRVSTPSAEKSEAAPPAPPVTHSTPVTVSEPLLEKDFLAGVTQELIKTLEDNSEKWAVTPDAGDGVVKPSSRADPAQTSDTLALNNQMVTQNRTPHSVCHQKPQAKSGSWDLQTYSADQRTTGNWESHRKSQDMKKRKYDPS

[14] = inhibitors of intracellular T. cruzi replication, confirmation, NIH3T3 host cells, beta-gal luminescence (AID 2044); format: functional, cell-based;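 also: intracellular parasites grown in NIH/3T3 mouse fibroblasts as host cells; luminescent beta-galactosidase reporter signal from transgenic T. cruzi replicating inside host cells; inhibitors lower the luminescence signal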
[15] = HEp-2 cell cytotoxicity, dose response, cytotoxicity control for RSV inhibitor project, HTS (AID 2410); format: functional; details: human respiratory syncytial virus
[16] = Luminescence Cell-Based Dose Response HTS to Identify Inhibitors of 5'UTR Stem-Loop Driven Prion Protein mRNA Translation in H4 Neuroglioblastoma Cells. [Related pubchem assays: 1827 (Project Summary), 1813 (Primary HTS)]; format: functional
[17] = inhibitors of SNCA 5'UTR-driven reporter translation, confirmation, H4 neuroglioma cells, luminescence (AID 1988); format: functional, cell-based
[18] = inhibitors of firefly luciferase expression or activity, dose response, H4 neuroglioma cells, luminescence (AID 1990); format: functional, cell-based
[19] = cytotoxicity toward NIH3T3 fibroblasts, dose response, counter-screen, cell-based, ATP luminescence, mouse fibroblasts (AID 2010); format: functional;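 also: cells exposed to compound for about 90 hours before reading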

Chain of Mitogen-activated protein kinase 10 (P53779 whole entry, the tested form may be a part): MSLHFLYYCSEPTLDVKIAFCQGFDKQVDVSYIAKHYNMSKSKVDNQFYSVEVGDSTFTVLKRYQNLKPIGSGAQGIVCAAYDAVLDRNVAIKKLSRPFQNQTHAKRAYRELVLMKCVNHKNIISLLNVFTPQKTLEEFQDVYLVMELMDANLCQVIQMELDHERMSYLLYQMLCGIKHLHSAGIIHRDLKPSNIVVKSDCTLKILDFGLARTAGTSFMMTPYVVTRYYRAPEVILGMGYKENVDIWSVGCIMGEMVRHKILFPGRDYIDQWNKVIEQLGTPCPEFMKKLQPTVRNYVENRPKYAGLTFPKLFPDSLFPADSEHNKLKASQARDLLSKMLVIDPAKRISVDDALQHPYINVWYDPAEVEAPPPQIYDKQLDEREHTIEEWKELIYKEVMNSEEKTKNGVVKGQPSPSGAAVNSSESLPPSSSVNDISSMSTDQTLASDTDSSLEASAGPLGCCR

Q: Which IC50 [1] does the source give for O=C(NC(Cc1ccc(O)cc1)C(=O)O)c1ccco1 (stereo unspecified) here?
A: > 83.3 µM (inactive)

Q: What about the IC50 [2] of the same compound?
A: > 109 µM (inactive)

Q: For FC(F)(F)c1cnc(NN=C(S)Nc2cccnc2)c(Cl)c1, which IC50 [3] is on record?
A: > 122 µM (inactive)

Q: With COc1ccc(-n2cc(-c3ccccc3)nc2S)cc1 as the compound, how does the IC50 [3] read?
A: > 122 µM (inactive)

Q: With Cc1cc(C)c2sc(NNC(=O)C3COc4ccccc4O3)nc2c1 (stereo unspecified) as the compound, how does the IC50 [3] read?
A: 26.2 µM (inactive)

Q: With COC(=O)c1ccccc1NC(=O)COC(=O)c1ccco1 as the compound, how does the IC50 [4] read?
A: 56.7 µM (not active)

Q: For c1cc2cc(CNc3nc(NCC4CC4)nc4ccsc34)ccc2o1, which AC50 [5] is on record?
A: 35.9 µM (active)

Q: And the AC50 [6]?
A: 22.5 µM (active)

Q: What about the AC50 [7] of the same compound?
A: 8.05 µM (active)

Q: And the AC50 [8]?
A: 4.73 µM (active)

Q: What about the AC50 [9] of the same compound?
A: 33.1 µM (active)

Q: Which EC50 (cells [10]) does the source give for CCC(C)NCCOc1ccc(C)cc1[N+](=O)[O-] (stereo unspecified) here?
A: > 350 µM (not active)

Q: What about the EC50 (cells [11]) of the same compound?
A: > 350 µM (not active)

Q: What about the IC50 (Prothrombin) of the same compound?
A: > 50 µM (not active)

Q: For CCOc1ccccc1NC(=O)COc1cccc(-n2cnnn2)c1, which IC50 [4] is on record?
A: 69.2 µM (not active)

Q: Which results are given for Cc1cccc(-c2nc(NCCCN(C)C)c3ccccc3n2)c1?
A: AC50 [12]: 21.4 µM (active); AC50 [13]: 9.69 µM (active)

Q: What does the source list for CC(C)Oc1ccc(C2CC(=O)N(c3cccc(C(=O)O)c3)C2=O)cc1 (stereo unspecified)?
A: IC50 [1]: > 83.3 µM (inactive); IC50 [2]: > 109 µM (inactive)

Q: Which results are given for CC(C)(C)C(=O)N1CCN(c2ccc(Cl)cc2[N+](=O)[O-])CC1?
A: IC50 [1]: > 83.3 µM (inactive); IC50 [2]: > 109 µM (inactive)

Q: For O=C(c1ccccc1)n1nc(-c2ccccc2)nc1NCc1ccco1, which IC50 (Prothrombin) is on record?
A: 1.72 µM (active)

Q: Which IC50 [4] does the source give for COc1ccc(COC(=O)C2=C(C)NC(=O)NC2c2ccc(O)c(OC)c2)cc1 (stereo unspecified) here?
A: 33.8 µM (not active)

Q: Which EC50 [14] does the source give for CCc1cccc2c1Sc1ccccc1CC2N1CCNCC1 (stereo unspecified) here?
A: 3.99 µM (active)

Q: And the CC50 [15]?
A: 13 µM (active)

Q: And the EC50 [16]?
A: > 120 µM (not active)

Q: What about the AC50 [13] of the same compound?
A: 18 µM (active)

Q: And the EC50 [17]?
A: > 120 µM (not active)

Q: What about the EC50 [18] of the same compound?
A: > 120 µM (not active)

Q: What about the EC50 [19] of the same compound?
A: 9.15 µM (active)

Q: With Oc1ccc2c3c1O[C@H]1c4[nH]c5c(c4CC4(O)C(C2)N(CC2CC2)CCC314)CC1(O)[C@H]2Cc3ccc(O)c4c3[C@@]1(CCN2CC1CC1)C5O4 (stereo partly specified) as the compound, how does the AC50 [13] read?
A: 11.1 µM (active)

Q: What does the source list for COc1ccc(CCC(C)NCc2ccc(Cl)c(Cl)c2)cc1 (stereo unspecified)?
A: AC50 [5]: 59.6 µM (active); AC50 [6]: 6.23 µM (active); AC50 [7]: 8.87 µM (active); AC50 [8]: 5.33 µM (active); AC50 [9]: 7.63 µM (active)
